Experimental data taken from US20260262643A1, “HERBICIDAL BENZOXAZINES” (FMC CORPORATION, priority 2022, published 2026).

Tests used:
barnyardgrass [1] = experiment: Test C preemergence; type: in vivo, Echinochloa crusgalli; settings: preemergence, 0 to 100 scale (0 no effect, 100 complete control)
Outline: (§1)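 Test material, in non-phytotoxic solvent with surfactant, was sprayed on the soil directly after seeding (preemergence) or on young plants of 2–10 cm with one to two leaves (postemergence). Greenhouse, 10 days; 0–100 visual control scale.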

blackgrass [2] = experiment: Test C preemergence; type: in vivo, Alopecurus myosuroides; settings: preemergence, 0 to 100 scale (0 no effect, 100 complete control)
Outline: as §1

corn [3] = experiment: Test C preemergence; type: in vivo, Zea mays; settings: preemergence, 0 to 100 scale (0 no effect, 100 complete control)
Outline: as §1

green foxtail [4] = experiment: Test C preemergence; type: in vivo, Setaria viridis; settings: preemergence, 0 to 100 scale (0 no effect, 100 complete control)
Outline: as §1

kochia [5] = experiment: Test C preemergence; type: in vivo, Bassia scoparia; settings: preemergence, 0 to 100 scale (0 no effect, 100 complete control)
Outline: as §1

oat, wild [6] = experiment: Test C preemergence; type: in vivo, Avena fatua; settings: preemergence, 0 to 100 scale (0 no effect, 100 complete control)
Outline: as §1

pigweed, palmer [7] = experiment: Test C preemergence; type: in vivo, Amaranthus palmeri; settings: preemergence, 0 to 100 scale (0 no effect, 100 complete control)
Outline: as §1

ryegrass, Italian [8] = experiment: Test C preemergence; type: in vivo, Lolium multiflorum; settings: preemergence, 0 to 100 scale (0 no effect, 100 complete control)
Outline: as §1

soybean [9] = experiment: Test C preemergence; type: in vivo, Glycine max; settings: preemergence, 0 to 100 scale (0 no effect, 100 complete control)
Outline: as §1

wheat [10] = experiment: Test C preemergence; type: in vivo, Triticum aestivum; settings: preemergence, 0 to 100 scale (0 no effect, 100 complete control)
Outline: as §1

barnyardgrass [11] = experiment: Test C postemergence; type: in vivo, Echinochloa crusgalli; settings: 10 days, 0 to 100 scale (0 no effect, 100 complete control)
Outline: as §1

blackgrass [12] = experiment: Test C postemergence; type: in vivo, Alopecurus myosuroides; settings: 10 days, 0 to 100 scale (0 no effect, 100 complete control)
Outline: as §1

corn [13] = experiment: Test C postemergence; type: in vivo, Zea mays; settings: 10 days, 0 to 100 scale (0 no effect, 100 complete control)
Outline: as §1

green foxtail [14] = experiment: Test C postemergence; type: in vivo, Setaria viridis; settings: 10 days, 0 to 100 scale (0 no effect, 100 complete control)
Outline: as §1

kochia [15] = experiment: Test C postemergence; type: in vivo, Bassia scoparia; settings: 10 days, 0 to 100 scale (0 no effect, 100 complete control)
Outline: as §1

oat, wild [16] = experiment: Test C postemergence; type: in vivo, Avena fatua; settings: 10 days, 0 to 100 scale (0 no effect, 100 complete control)
Outline: as §1

pigweed, palmer [17] = experiment: Test C postemergence; type: in vivo, Amaranthus palmeri; settings: 10 days, 0 to 100 scale (0 no effect, 100 complete control)
Outline: as §1

ragweed = experiment: Test C postemergence; type: in vivo, Ambrosia artemisiifolia; settings: 10 days, 0 to 100 scale (0 no effect, 100 complete control)
Outline: as §1

ryegrass, Italian [18] = experiment: Test C postemergence; type: in vivo, Lolium multiflorum; settings: 10 days, 0 to 100 scale (0 no effect, 100 complete control)
Outline: as §1

soybean [19] = experiment: Test C postemergence; type: in vivo, Glycine max; settings: 10 days, 0 to 100 scale (0 no effect, 100 complete control)
Outline: as §1

wheat [20] = experiment: Test C postemergence; type: in vivo, Triticum aestivum; settings: 10 days, 0 to 100 scale (0 no effect, 100 complete control)
Outline: as §1

galium = experiment: Test C postemergence; type: in vivo, Galium aparine; settings: 10 days, 0 to 100 scale (0 no effect, 100 complete control)
Outline: as §1

horseweed = experiment: Test C postemergence; type: in vivo, Erigeron canadensis; settings: 10 days, 0 to 100 scale (0 no effect, 100 complete control)
Outline: as §1

barnyardgrass [21] = experiment: Test D flooded paddy test; type: in vivo, Echinochloa crus-galli; settings: 250 g ai/ha, applied to paddy water, visual rating after 13 to 14 days, scale 0 to 100 (0 no effect, 100 complete control)
Outline: (§2)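 Plants grown to the 2-leaf stage; pots flooded to 3 cm above soil at treatment and held at that depth throughout. Test compounds applied directly to the paddy water. After 13 to 14 days in a greenhouse, response was rated visually versus controls on a 0 (no effect) to 100 (complete control) scale.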

ducksalad = experiment: Test D flooded paddy test; type: in vivo, Heteranthera limosa; settings: 250 g ai/ha, applied to paddy water, visual rating after 13 to 14 days, scale 0 to 100 (0 no effect, 100 complete control)
Outline: as §2

rice = experiment: Test D flooded paddy test; type: in vivo, Oryza sativa; settings: 250 g ai/ha, applied to paddy water, visual rating after 13 to 14 days, scale 0 to 100 (0 no effect, 100 complete control)
Outline: as §2

sedge, umbrella = experiment: Test D flooded paddy test; type: in vivo, Cyperus difformis; settings: 250 g ai/ha, applied to paddy water, visual rating after 13 to 14 days, scale 0 to 100 (0 no effect, 100 complete control)
Outline: as §2

CCOc1ncn(-c2cccc(C(=O)N3C[C@H](C)Oc4c(Cl)cccc43)c2)n1 [Compound 311]
50: Pigweed, Palmer plant response rating (pigweed, palmer [7]; Test C, 125 g ai/ha) | Plant response rating, Horseweed (horseweed; 500 g ai/ha, postemergence) | Plant response rating, Horseweed (horseweed; Postemergence, 125 g ai/ha)
40: Plant response rating, Barnyardgrass (barnyardgrass [11]; 500 g ai/ha, postemergence) | Plant response rating, Corn (corn [13]; 500 g ai/ha, postemergence) | Plant response rating, Foxtail, Green (green foxtail [14]; 500 g ai/ha, postemergence) | Plant response rating, Ragweed (ragweed; 500 g ai/ha, postemergence)
90: Foxtail, Green plant response rating (green foxtail [4]; Test C, 125 g ai/ha) | Plant response rating, Blackgrass (blackgrass [12]; 500 g ai/ha, postemergence) | Plant response rating, Galium (galium; 500 g ai/ha, postemergence) | Plant response rating, Galium (galium; Postemergence, 125 g ai/ha)
0: Barnyardgrass plant response rating (barnyardgrass [1]; Test C, 125 g ai/ha) | Corn plant response rating (corn [3]; 500 g ai/ha) | Corn plant response rating (corn [3]; Test C, 125 g ai/ha) | Oat, Wild plant response rating (oat, wild [6]; Test C, 125 g ai/ha) | Soybean plant response rating (soybean [9]; Test C, 125 g ai/ha) | Wheat plant response rating (wheat [10]; Test C, 125 g ai/ha) | Plant response rating, Blackgrass (blackgrass [12]; Postemergence, 125 g ai/ha) | Plant response rating, Oat, Wild (oat, wild [16]; Postemergence, 125 g ai/ha) | Plant response rating, Ragweed (ragweed; Postemergence, 125 g ai/ha) | Plant response rating, Barnyardgrass (Flood) (barnyardgrass [21]) | Plant response rating, Ducksalad (Flood) (ducksalad) | Plant response rating, Rice (Flood) (rice) | Plant response rating, Sedge, Umbrella (Flood) (sedge, umbrella)
70: Plant response rating, Kochia (kochia [15]; 500 g ai/ha, postemergence) | Plant response rating, Soybean (soybean [19]; Postemergence, 125 g ai/ha)
30: Oat, Wild plant response rating (oat, wild [6]; 500 g ai/ha) | Ryegrass, Italian plant response rating (ryegrass, Italian [8]; Test C, 125 g ai/ha) | Plant response rating, Foxtail, Green (green foxtail [14]; Postemergence, 125 g ai/ha) | Plant response rating, Kochia (kochia [15]; Postemergence, 125 g ai/ha) | Plant response rating, Ryegrass, Italian (ryegrass, Italian [18]; 500 g ai/ha, postemergence)
20: Kochia plant response rating (kochia [5]; Test C, 125 g ai/ha) | Wheat plant response rating (wheat [10]; 500 g ai/ha) | Plant response rating, Pigweed, Palmer (pigweed, palmer [17]; Postemergence, 125 g ai/ha)
60: Barnyardgrass plant response rating (barnyardgrass [1]; 500 g ai/ha) | Plant response rating, Pigweed, Palmer (pigweed, palmer [17]; 500 g ai/ha, postemergence)
10: Blackgrass plant response rating (blackgrass [2]; Test C, 125 g ai/ha) | Soybean plant response rating (soybean [9]; 500 g ai/ha) | Plant response rating, Barnyardgrass (barnyardgrass [11]; Postemergence, 125 g ai/ha) | Plant response rating, Corn (corn [13]; Postemergence, 125 g ai/ha) | Plant response rating, Oat, Wild (oat, wild [16]; 500 g ai/ha, postemergence) | Plant response rating, Ryegrass, Italian (ryegrass, Italian [18]; Postemergence, 125 g ai/ha) | Plant response rating, Wheat (wheat [20]; 500 g ai/ha, postemergence) | Plant response rating, Wheat (wheat [20]; Postemergence, 125 g ai/ha)
80: Blackgrass plant response rating (blackgrass [2]; 500 g ai/ha) | Kochia plant response rating (kochia [5]; 500 g ai/ha) | Ryegrass, Italian plant response rating (ryegrass, Italian [8]; 500 g ai/ha)
100: Foxtail, Green plant response rating (green foxtail [4]; 500 g ai/ha) | Pigweed, Palmer plant response rating (pigweed, palmer [7]; 500 g ai/ha) | Plant response rating, Soybean (soybean [19]; 500 g ai/ha, postemergence)
